Each structure is given as a SMILES string.

The text below walks through data of US9073940B2, “Tricyclic pyrazol amine derivatives” (MERCK SERONO SA, priority 2009, dated 2015).

The subject of the first assay is 4 PI3K isoforms (Human recombinant GST-PI3K). The experiment in a line: PI3K scintillation proximity assay, best IC50 obtained with the four isoforms (alpha, beta, delta, gamma). The assay is classed as biochemical. Particulars: best IC50 obtained with the four isoforms of PI3K; read-out: Best potency measured on the 4 PI3K isoforms. (Scintillation proximity formats need no separation of bound from free tracer.)
On to `O=C(c1nn(C2CCN(CCN3CCOCC3)C2)c2c1CS(=O)(=O)c1ccccc1-2)N1CCOCC1` (stereo not shown) [Example 275, 3-(Morpholin-4-ylcarbonyl)-1-[1-(2-morpholin-4-ylethyl)pyrrolidin-3-yl]-1,4-dihydrothiochromeno[4,3-c]pyrazole 5,5-dioxide], for which the IC50 stood at 0.192 µM.
On the same count and under the same terms, to `COC1CCN(CCN2CCC[C@H](n3nc(C(=O)N4CCOCC4)c4c3-c3ccc(F)cc3S(=O)(=O)C4)C2)CC1` (stereo in doubt) [Example 474, 7-fluoro-1-{1-[2-(4-methoxypiperidin-1-yl)ethyl]piperidin-3-yl}-3-(morpholin-4-ylcarbonyl)-1,4-dihydrothiochromeno[4,3-c]pyrazole 5,5-dioxide] belongs 0.013 µM.
As to `O=C(c1nn(C2CCCN(CCN3CC[C@@H](F)C3)C2)c2c1CS(=O)(=O)c1ccccc1-2)N1CCOCC1` (single isomer, unassigned) [Example 283], the IC50 came to 0.034 µM.
Take `COc1ccc(-n2nc(C(=O)N3CCOCC3)c3c2-c2ccccc2S(=O)(=O)C3)cc1` [Example 10, 1-(4-methoxyphenyl)-3-(morpholin-4-ylcarbonyl)-1,4-dihydrothiochromeno[4,3-c]pyrazole 5,5-dioxide]: the IC50 stood at 0.749 µM.
For the compound `CN(C)c1ccc2c(c1)S(=O)(=O)Cc1c(C(=O)N3CCOCC3)nn(-c3ccccc3)c1-2` [Example 152, N,N-Dimethyl-3-(morpholin-4-ylcarbonyl)-1-phenyl-1,4-dihydrothiochromeno[4,3-c]pyrazol-7-amine 5,5-dioxide], the IC50 was determined as 5.02 µM.
For `O=C(c1nn([C@H]2CCCN(CC3CCOCC3)C2)c2c1CS(=O)(=O)c1ccccc1-2)N1CCOCC1` (stereo in doubt) [Example 361, 3-(morpholin-4-ylcarbonyl)-1-[1-(tetrahydro-2H-pyran-4-ylmethyl)piperidin-3-yl]-1,4-dihydrothiochromeno[4,3-c]pyrazole 5,5-dioxide], the IC50 turned out to be 0.025 µM.
On to `CN1CCN(C(=O)c2cccc(-n3nc(C(=O)N4CCOCC4)c4c3-c3ccccc3S(=O)(=O)C4)c2)CC1` [Example 124, 1-{3-[(4-Methylpiperazin-1-yl)carbonyl]phenyl}-3-(morpholin-4-ylcarbonyl)-1,4-dihydrothiochromeno[4,3-c]pyrazole 5,5-dioxide], for which the IC50 is 0.253 µM.
Consider `CN(C)c1cccc(-n2nc(C(=O)N3CCOCC3)c3c2-c2ccccc2S(=O)(=O)C3)c1` [Example 177, N,N-Dimethyl-3-[3-(morpholin-4-ylcarbonyl)-5,5-dioxidothiochromeno[4,3-c]pyrazol-1 (4H)-yl]aniline], for which the IC50 was 4.72 µM.
On to `O=C(c1nn(-c2ccccc2)c2c1CS(=O)(=O)c1ccccc1-2)N1CCOC(CO)C1` (stereo not shown) [Example 333, {4-[(5,5-Dioxido-1-phenyl-1,4-dihydrothiochromeno[4,3-c]pyrazol-3-yl)carbonyl]morpholin-2-yl}methanol], for which the IC50 turned out to be 6.53 µM.
Same read-out and setting: under `Cn1nc(C(=O)N2CCOCC2)c2c1-c1cc(Br)ccc1S(=O)(=O)C2` [Example 63] stands 1.04 µM; under `O=C(c1nn([C@H]2CCCN(CCC3CCOCC3)C2)c2c1CS(=O)(=O)c1c(F)cccc1-2)N1CCOCC1` (single isomer, unassigned) [Example 344, 6-fluoro-3-(morpholin-4-ylcarbonyl)-1-{1-[2-(tetrahydro-2H-pyran-4-yl)ethyl]piperidin-3-yl}-1,4-dihydrothiochromeno[4,3-c]pyrazole 5,5-dioxide], 0.006 µM.
As to `O=C(c1nn(-c2ccc(CN3CCOCC3)nc2)c2c1CS(=O)(=O)c1ccccc1-2)N1CCOCC1` [Example 216, 3-(Morpholin-4-ylcarbonyl)-1-[6-(morpholin-4-ylmethyl)pyridin-3-yl]-1,4-dihydrothiochromeno[4,3-c]pyrazole 5,5-dioxide], the IC50 was 0.614 µM.
Turning to `O=C(c1ccoc1)N1CCC[C@H](n2nc(C(=O)N3CCOCC3)c3c2-c2ccccc2S(=O)(=O)C3)C1` [Example 396], the IC50 was found to be 0.75 µM.
For the compound `O=C(c1nn(C2CCCN(CCC3CCOCC3)C2)c2c1CS(=O)(=O)c1ncccc1-2)N1CCOCC1` (stereo not shown) [Example 408], the IC50 stood at 0.061 µM.
The same measure, in the same setting: under `O=C(c1ccc2c(c1)-c1c(c(C(=O)N3CCOCC3)nn1-c1ccccc1)CS2(=O)=O)N1CCOCC1` [Example 116, 3,8-Bis(morpholin-4-ylcarbonyl)-1-phenyl-1,4-dihydrothiochromeno[4,3-c]pyrazole 5,5-dioxide] stands 3.03 µM; under `NC(=O)c1cccc(-n2nc(C(=O)N3CCOCC3)c3c2-c2ccccc2S(=O)(=O)C3)c1` [Example 62, 3-[3-(Morpholin-4-ylcarbonyl)-5,5-dioxidothiochromeno[4,3-c]pyrazol-1(4H)-yl]benzamide], 0.957 µM; under `COC(=O)c1ccc(Cn2nc(C(=O)N3CCOCC3)c3c2-c2ccccc2S(=O)(=O)C3)o1` [Example 231, Methyl 5-{[3-(morpholin-4-ylcarbonyl)-5,5-dioxidothiochromeno[4,3-c]pyrazol-1(4H)-yl]methyl}-2-furoate], 0.431 µM.
Regarding `O=C(c1ccc(-n2nc(C(=O)N3CCOCC3)c3c2-c2ccccc2S(=O)(=O)C3)cc1)N1CCOCC1` [Example 147, 3-(Morpholin-4-ylcarbonyl)-1-[4-(morpholin-4-ylcarbonyl)phenyl]-1,4-dihydrothiochromeno[4,3-c]pyrazole 5,5-dioxide], the IC50 worked out at 0.274 µM.
For `CC1CN(C(=O)c2nn(-c3ccccc3)c3c2CS(=O)(=O)c2ccccc2-3)CCO1` (stereo not shown) [Example 163, 3-[(2-Methylmorpholin-4-yl)carbonyl]-1-phenyl-1,4-dihydrothiochromeno[4,3-c]pyrazole 5,5-dioxide], the IC50 was found to be 2.16 µM.
As for `O=C(c1nn(-c2cccc(CN3CC(F)(F)C3)c2)c2c1CS(=O)(=O)c1ccccc1-2)N1CCOCC1` [Example 261, 1-{3-[(3,3-Difluoroazetidin-1-yl)methyl]phenyl}-3-(morpholin-4-ylcarbonyl)-1,4-dihydrothiochromeno[4,3-c]pyrazole 5,5-dioxide], the IC50 was 0.643 µM.
For the compound `O=C(c1nn([C@H]2CCCN(Cc3ccncc3)C2)c2c1CS(=O)(=O)c1ccccc1-2)N1CCOCC1` (stereo in doubt) [Example 473, 3-(morpholin-4-ylcarbonyl)-1-[1-(pyridin-4-ylmethyl)piperidin-3-yl]-1,4-dihydrothiochromeno[4,3-c]pyrazole 5,5-dioxide], the IC50 amounted to 0.045 µM.
Regarding `O=C(c1nn(-c2ccccc2F)c2c1CS(=O)(=O)c1ccccc1-2)N1CCOCC1` [Example 21, 1-(2-fluorophenyl)-3-(morpholin-4-ylcarbonyl)-1,4-dihydrothiochromeno[4,3-c]pyrazole 5,5-dioxide], the IC50 came out at 2 µM.
As for `CNCc1ccc(-n2nc(C(=O)N3CCOCC3)c3c2-c2ccccc2S(=O)(=O)C3)cc1` [Example 449, N-Methyl-1-{4-[3-(morpholin-4-ylcarbonyl)-5,5-dioxidothiochromeno[4,3-c]pyrazol-1 (4H)-yl]phenyl}methanamine], the IC50 is 0.226 µM.
On to `O=C(c1nn(-c2ccccc2)c2c1CS(=O)(=O)c1cc(C(F)(F)F)ccc1-2)N1CCOCC1` [Example 158, 3-(Morpholin-4-ylcarbonyl)-1-phenyl-7-(trifluoromethyl)-1,4-dihydrothiochromeno[4,3-c]pyrazole 5,5-dioxide], for which the IC50 is 3.06 µM.
As for `Nc1ccc2c(c1)S(=O)(=O)Cc1c(C(=O)N3CCOCC3)nn(-c3ccccc3)c1-2` [Example 165, 3-(Morpholin-4-ylcarbonyl)-1-phenyl-1,4-dihydrothiochromeno[4,3-c]pyrazol-7-amine 5,5-dioxide], the IC50 amounted to 1.13 µM.
Take `CN1CCCC(N2CCC[C@H](n3nc(C(=O)N4CCOCC4)c4c3-c3ccccc3S(=O)(=O)C4)C2)C1` (stereo in doubt) [Example 459, 1-[1′-methyl-1,3′-bipiperidin-3-yl]-3-(morpholin-4-ylcarbonyl)-1,4-dihydrothiochromeno[4,3-c]pyrazole 5,5-dioxide]: the IC50 came out at 0.018 µM.
On the same count and under the same terms, under `O=C(c1nn(-c2ccc(Cl)cc2)c2c1CS(=O)(=O)c1ccccc1-2)N1CCOCC1` [Example 29, 1-(4-chlorophenyl)-3-(morpholin-4-ylcarbonyl)-1,4-dihydrothiochromeno[4,3-c]pyrazole 5,5-dioxide] stands 0.895 µM; under `COCCNCCN1CCC[C@H](n2nc(C(=O)N3CCOCC3)c3c2-c2ccccc2S(=O)(=O)C3)C1` (stereo in doubt) [Example 445, 2-methoxy-N-(2-{3-[3-(morpholin-4-ylcarbonyl)-5,5-dioxidothiochromeno[4,3-c]pyrazol-1(4H)-yl]piperidin-1-yl}ethyl)ethanamine], 0.034 µM.
Turning to `O=C(c1nn(-c2cccc(-c3nccs3)c2)c2c1CS(=O)(=O)c1ccccc1-2)N1CCOCC1` [Example 189, 3-(Morpholin-4-ylcarbonyl)-1-[3-(1,3-thiazol-2-yl)phenyl]-1,4-dihydrothiochromeno[4,3-c]pyrazole 5,5-dioxide], the IC50 is 4.22 µM.
The same measure, in the same setting: to `COCc1cccc(-n2nc(C(=O)N3CCOCC3)c3c2-c2ccccc2S(=O)(=O)C3)c1` [Example 248, 1-[3-(Methoxylmethyl)phenyl]-3-(morpholin-4-ylcarbonyl)-1,4-dihydrothiochromeno[4,3-c]pyrazole 5,5-dioxide] belongs 0.997 µM; to `Cc1nc2ccc(-n3nc(C(=O)N4CCOCC4)c4c3-c3ccccc3S(=O)(=O)C4)cc2s1` [Example 24, 1-(2-methyl-1,3-benzothiazol-6-yl)-3-(morpholin-4-ylcarbonyl)-1,4-dihydrothiochromeno[4,3-c]pyrazole 5,5-dioxide], 0.662 µM; to `O=C(c1nn(-c2ccc(CN3CCC(F)CC3)cc2)c2c1CS(=O)(=O)c1ccccc1-2)N1CCOCC1` [Example 167, 1-{4-[(4-Fluoropiperidin-1-yl)methyl]phenyl}-3-(morpholin-4-ylcarbonyl)-1,4-dihydrothiochromeno[4,3-c]pyrazole 5,5-dioxide], 0.247 µM.
`CCCCNc1ccc2c(c1)S(=O)(=O)Cc1c(C(=O)N3CCOCC3)nn(-c3ccccc3)c1-2` [Example 326]: the IC50 was 9.79 µM.

Still in this assay, the particulars now being: inhibition at 20 μM.
As to `O=C(c1nn(-c2ccccc2)c2c1CS(=O)(=O)c1ccccc1-2)N1CCOc2ccccc21` [Example 335], the “Best potency measured on the 4 PI3K isoforms, % inh @20 μM” value was 13% inh @20 μM.
